Assay results from the supplement of paper PMC11208160.

Assay: recombinant UMI read abundance after kanamycin selection (control-corrected) (log10(CPM+1)); higher = more efficient recombination; extreme values may be limits of the assay; sequences stand for … in AGTGCAGAGAAAATCGGCCAGTTTTCTCTGCCTGCAGTCCGCATGCCGTGGGACCCCTTGGGTTCTAACCTGTTGCCTAGATTTATGCAGCGGACTGCCTTTCTCCCAAAGTGATAAACCGG…AGGTTGGTTTCACT; site = the 11-nt donor
In short: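 Values are reported as log10(CPM+1), obtained by converting sequencing counts to CPM, averaging replicates and scaling by control-derived factors. The counts came from recombinant UMIs amplified by PCR across the donor–target junction. These UMIs came from a pooled Escherichia coli screen of donor and donor-binding-loop pairs for the IS621 bridge recombinase, plated with IPTG (0.07 mM) plus kanamycin or left unselected, in two replicates each.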
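Note: IS621 bridge recombinase in Escherichia coli cells against a fixed T5 target plasmid.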

Compared with “GTTCGAACATGGACCGGTTTTCCCGGTAATCCGTATTTGCA (site GTTCGATCTTG)”, “GTTCGACCATGGACCGGTTTTCCCGGTAATCCGTATTTGCA (site GTTCGAACTTG)” is lower in “recombinant UMI read abundance (log10)” value: 0.448 for the first, 0 for the second.

“GTTCGACCATGGACCGGTTTTCCCGGTAATCCGTATTTGCA (site GTTCGACCTTG)” and “GTTCGACCATGGACCGGTTTTCCCGGTAATCCGTATTTGCA (site GTTCGAGCTTG)” are the same in “recombinant UMI read abundance (log10)” value: 0 for the first, 0 for the second.

Going from “GTTCGACCATGGACCGGTTTTCCCGGTAATCCGTATTTGCA (site GTTCGATCTTG)” to “GTTCGCGCATGGACCGGTTTTCCCGGTAATCCGTATTTGCA (site GTTCGAGCTTG)”, the “recombinant UMI read abundance (log10)” value rises from 0 to 0.394.

First: GTTCGCGCATGGACCGGTTTTCCCGGTAATCCGTATTTGCA (site GTTCGCGCTTG)
Second: GTTCGCGCATGGACCGGTTTTCCCGGTAATCCGTATTTGCA (site GTTCGGGCTTG)
The “recombinant UMI read abundance (log10)” value of the first is higher: 2.03 for the first, 0 for the second.

Compared with “GTTCGCGCATGGACCGGTTTTCCCGGTAATCCGTATTTGCA (site GTTCGTGCTTG)”, “GTTCGGGCATGGACCGGTTTTCCCGGTAATCCGTATTTGCA (site GTTCGAGCTTG)” is higher in “recombinant UMI read abundance (log10)” value: 0.00559 for the first, 1.27 for the second.

Compared with “GTTCGGGCATGGACCGGTTTTCCCGGTAATCCGTATTTGCA (site GTTCGCGCTTG)”, “GTTCGGGCATGGACCGGTTTTCCCGGTAATCCGTATTTGCA (site GTTCGGGCTTG)” is higher in “recombinant UMI read abundance (log10)” value: 0 for the first, 2.23 for the second.

Compared with “GTTCGGGCATGGACCGGTTTTCCCGGTAATCCGTATTTGCA (site GTTCGTGCTTG)”, “GTTCGTACATGGACCGGTTTTCCCGGTAATCCGTATTTGAC (site GTTCGTACTGT)” is higher in “recombinant UMI read abundance (log10)” value: 0.33 for the first, 1.54 for the second.

“GTTCGTACATGGACCGGTTTTCCCGGTAATCCGTATTTGGG (site GTTCGTACTCC)” and “GTTCTATCATGGACCGGTTTTCCCGGTAATCCGTATTTGGT (site GTTCTATCTAC)” are within 0.2 log units of each other in “recombinant UMI read abundance (log10)” value: 0.0129 for the first, 0 for the second.

“GTTCTTCCATGGACCGGTTTTCCCGGTAATCCGTATTTGGT (site GTTATTCCTAC)” and “GTTCTTCCATGGACCGGTTTTCCCGGTAATCCGTATTTGGT (site GTTCTTCCTAC)” are within 0.2 log units of each other in “recombinant UMI read abundance (log10)” value: 0.00339 for the first, 0.00538 for the second.

“GTTCTTCCATGGACCGGTTTTCCCGGTAATCCGTATTTGGT (site GTTGTTCCTAC)” and “GTTCTTCCATGGACCGGTTTTCCCGGTAATCCGTATTTGGT (site GTTTTTCCTAC)” are within 0.2 log units of each other in “recombinant UMI read abundance (log10)” value: 0.0119 for the first, 0 for the second.

“GTTGAGACATGGACCGGTTTTCCCGGTAATCCGTATTTGGT (site ATTGAGACTAC)” and “GTTGAGACATGGACCGGTTTTCCCGGTAATCCGTATTTGGT (site CTTGAGACTAC)” are within 0.2 log units of each other in “recombinant UMI read abundance (log10)” value: 0.953 for the first, 0.883 for the second.

“GTTGAGACATGGACCGGTTTTCCCGGTAATCCGTATTTGGT (site GTTGAGACTAC)” and “GTTGAGACATGGACCGGTTTTCCCGGTAATCCGTATTTGGT (site TTTGAGACTAC)” are within 0.2 log units of each other in “recombinant UMI read abundance (log10)” value: 0.775 for the first, 0.683 for the second.

Going from “GTTGATGCATGGACCGGTTTTCCCGGTAATCCGTATTTGAC (site GTTGATGCTGT)” to “GTTGCGTCATGGACCGGTTTTCCCGGTAATCCGTATTTGGC (site GTTGCGTCTGC)”, the “recombinant UMI read abundance (log10)” value rises from 2.12 to 2.41.

Going from “GTTGCGTCATGGACCGGTTTTCCCGGTAATCCGTATTTGGT (site GTTGCGTCTAC)” to “GTTGTATCATGGACCGGTTTTCCCGGTAATCCGTATTTGAC (site CTAGTATCTGT)”, the “recombinant UMI read abundance (log10)” value rises from 0.923 to 1.45.

First: GTTGTATCATGGACCGGTTTTCCCGGTAATCCGTATTTGAC (site GTTGTATCTGT)
Second: GTTGTCCCATGGACCGGTTTTCCCGGTAATCCGTATTTGGT (site GTTGTACCTAC)
The “recombinant UMI read abundance (log10)” value of the first is higher: 2.18 for the first, 0.00965 for the second.

“GTTGTCCCATGGACCGGTTTTCCCGGTAATCCGTATTTGGT (site GTTGTCCCTAC)” and “GTTGTCCCATGGACCGGTTTTCCCGGTAATCCGTATTTGGT (site GTTGTGCCTAC)” are within 0.2 log units of each other in “recombinant UMI read abundance (log10)” value: 0.0143 for the first, 0.0145 for the second.

“GTTGTCCCATGGACCGGTTTTCCCGGTAATCCGTATTTGGT (site GTTGTTCCTAC)” and “GTTGTCGCATGGACCGGTTTTCCCGGTAATCCGTATTTGCG (site GTAGTCGCTCG)” are within 0.2 log units of each other in “recombinant UMI read abundance (log10)” value: 0 for the first, 0.0153 for the second.

“GTTGTCGCATGGACCGGTTTTCCCGGTAATCCGTATTTGCG (site GTCGTCGCTCG)” and “GTTGTCGCATGGACCGGTTTTCCCGGTAATCCGTATTTGCG (site GTGGTCGCTCG)” are within 0.2 log units of each other in “recombinant UMI read abundance (log10)” value: 0.00886 for the first, 0.009 for the second.

“GTTGTCGCATGGACCGGTTTTCCCGGTAATCCGTATTTGCG (site GTTGTCGCTCG)” and “GTTGTTACATGGACCGGTTTTCCCGGTAATCCGTATTTGGT (site GTTGTTACTAC)” are within 0.2 log units of each other in “recombinant UMI read abundance (log10)” value: 0.974 for the first, 1.07 for the second.

“GTTGTTACATGGACCGGTTTTCCCGGTAATCCGTATTTGGT (site GTTGTTCCTAC)” and “GTTGTTACATGGACCGGTTTTCCCGGTAATCCGTATTTGGT (site GTTGTTGCTAC)” are within 0.2 log units of each other in “recombinant UMI read abundance (log10)” value: 0 for the first, 0.0188 for the second.

“GTTGTTACATGGACCGGTTTTCCCGGTAATCCGTATTTGGT (site GTTGTTTCTAC)” and “GTTGTTCCATGGACCGGTTTTCCCGGTAATCCGTATTTGAT (site GTTGTTCCTAA)” are within 0.2 log units of each other in “recombinant UMI read abundance (log10)” value: 0 for the first, 0.0147 for the second.

“GTTGTTCCATGGACCGGTTTTCCCGGTAATCCGTATTTGAT (site GTTGTTCCTAC)” and “GTTGTTCCATGGACCGGTTTTCCCGGTAATCCGTATTTGAT (site GTTGTTCCTAG)” are within 0.2 log units of each other in “recombinant UMI read abundance (log10)” value: 0.00806 for the first, 0 for the second.

“GTTGTTCCATGGACCGGTTTTCCCGGTAATCCGTATTTGAT (site GTTGTTCCTAT)” and “GTTGTTCCATGGACCGGTTTTCCCGGTAATCCGTATTTGCT (site GTTGTTCCTAA)” are within 0.2 log units of each other in “recombinant UMI read abundance (log10)” value: 0.00518 for the first, 0.0109 for the second.

“GTTGTTCCATGGACCGGTTTTCCCGGTAATCCGTATTTGCT (site GTTGTTCCTAC)” and “GTTGTTCCATGGACCGGTTTTCCCGGTAATCCGTATTTGCT (site GTTGTTCCTAG)” are within 0.2 log units of each other in “recombinant UMI read abundance (log10)” value: 0.0126 for the first, 0 for the second.

“GTTGTTCCATGGACCGGTTTTCCCGGTAATCCGTATTTGCT (site GTTGTTCCTAT)” and “GTTGTTCCATGGACCGGTTTTCCCGGTAATCCGTATTTGGC (site GTTGTTCCTAC)” are within 0.2 log units of each other in “recombinant UMI read abundance (log10)” value: 0.00476 for the first, 0.00298 for the second.

“GTTGTTCCATGGACCGGTTTTCCCGGTAATCCGTATTTGGC (site GTTGTTCCTCC)” and “GTTGTTCCATGGACCGGTTTTCCCGGTAATCCGTATTTGGC (site GTTGTTCCTGC)” are within 0.2 log units of each other in “recombinant UMI read abundance (log10)” value: 0.0108 for the first, 0 for the second.

“GTTGTTCCATGGACCGGTTTTCCCGGTAATCCGTATTTGGC (site GTTGTTCCTTC)” and “GTTGTTCCATGGACCGGTTTTCCCGGTAATCCGTATTTGGG (site GTTGTTCCTAC)” are within 0.2 log units of each other in “recombinant UMI read abundance (log10)” value: 0.0051 for the first, 0.0139 for the second.

“GTTGTTCCATGGACCGGTTTTCCCGGTAATCCGTATTTGGG (site GTTGTTCCTCC)” and “GTTGTTCCATGGACCGGTTTTCCCGGTAATCCGTATTTGGG (site GTTGTTCCTGC)” are within 0.2 log units of each other in “recombinant UMI read abundance (log10)” value: 0.0029 for the first, 0 for the second.

“GTTGTTCCATGGACCGGTTTTCCCGGTAATCCGTATTTGGG (site GTTGTTCCTTC)” and “GTTTAACCATGGACCGGTTTTCCCGGTAATCCGTATTTGGT (site GTTTAACCTAC)” are within 0.2 log units of each other in “recombinant UMI read abundance (log10)” value: 0.00718 for the first, 0.00474 for the second.

First: GTTTACCCATGGACCGGTTTTCCCGGTAATCCGTATTTGGG (site GTTTACCCTCC)
Second: GTTTATTCATGGACCGGTTTTCCCGGTAATCCGTATTTGCT (site GTTTATTCTAG)
The “recombinant UMI read abundance (log10)” value of the first is lower: 0.00501 for the first, 1.99 for the second.

Going from “GTTTATTCATGGACCGGTTTTCCCGGTAATCCGTATTTGGT (site GTTTATTCTAC)” to “GTTTCGGCATGGACCGGTTTTCCCGGTAATCCGTATTTGGT (site GTTTCGGCTAC)”, the “recombinant UMI read abundance (log10)” value falls from 1.61 to 0.282.

“GTTTGCCCATGGACCGGTTTTCCCGGTAATCCGTATTTGAT (site GATTGCCCTAT)” and “GTTTGCCCATGGACCGGTTTTCCCGGTAATCCGTATTTGAT (site GCTTGCCCTAT)” are within 0.2 log units of each other in “recombinant UMI read abundance (log10)” value: 0.00963 for the first, 0.0198 for the second.

“GTTTGCCCATGGACCGGTTTTCCCGGTAATCCGTATTTGAT (site GGTTGCCCTAT)” and “GTTTGCCCATGGACCGGTTTTCCCGGTAATCCGTATTTGAT (site GTTTGCCCTAT)” are within 0.2 log units of each other in “recombinant UMI read abundance (log10)” value: 0.018 for the first, 0.0181 for the second.

Compared with “GTTTGCGCATGGACCGGTTTTCCCGGTAATCCGTATTTGTC (site GTTTGCGCTGA)”, “TAAACAACATGGACCGGTTTTCCCGGTAATCCGTATTTGTA (site TAAACAACTTA)” is lower in “recombinant UMI read abundance (log10)” value: 1.54 for the first, 0.815 for the second.

Compared with “TAAACCACATGGACCGGTTTTCCCGGTAATCCGTATTTGAT (site TAAACCACTAT)”, “TAAAGTCCATGGACCGGTTTTCCCGGTAATCCGTATTTGCA (site TAAAGTCCTTA)” is lower in “recombinant UMI read abundance (log10)” value: 1.3 for the first, 0.00275 for the second.

First: TAAAGTCCATGGACCGGTTTTCCCGGTAATCCGTATTTGCA (site TAAAGTCCTTC)
Second: TAAAGTCCATGGACCGGTTTTCCCGGTAATCCGTATTTGCA (site TAAAGTCCTTG)
The “recombinant UMI read abundance (log10)” value of the first is lower: 0.00901 for the first, 1.07 for the second.

“TAAAGTCCATGGACCGGTTTTCCCGGTAATCCGTATTTGCA (site TAAAGTCCTTT)” and “TAAAGTCCATGGACCGGTTTTCCCGGTAATCCGTATTTGTG (site TAAAGTCCTAA)” are within 0.2 log units of each other in “recombinant UMI read abundance (log10)” value: 0 for the first, 0.00597 for the second.

With “TAAAGTCCATGGACCGGTTTTCCCGGTAATCCGTATTTGTG (site TAAAGTCCTCA)” the “recombinant UMI read abundance (log10)” value was 0.64.
